Literature values as cited in US11337989B2, “Compositions and methods for inhibiting inflammation and diseases using an alginic acid-based antimicrobial compound” (Evofem, Inc., priority 2013, dated 2022).

Experiments:
[1] = at an acidic pH
HIV = settings: compared with D or racemic lactic acid; Purcell et al. 2012
[2] = test system: vaginal and cervical cells
[3] = test system: bacteria associated with bacterial vaginosis; settings: in vaginal fluid; O'Hanlon et al. 2011

C[C@H](Cn1cnc2c(N)ncnc21)OCP(=O)(O)O [Tenofovir, 1-(6-aminopurin-9-yl)propan-2-yloxymethylphosphonic acid]
water solubility [1]: not water soluble

C[C@H](O)C(=O)O [L form of lactic acid, L-(+)-lactic acid]
potency in inactivating HIV (HIV): more potent

nonoxynol-9 [N-9]
toxicity to vaginal and cervical cells [2]: toxic

CC(O)C(=O)O (stereo not shown) [lactic acid]
suppression of bacteria associated with bacterial vaginosis [3]: suppressed
